Results on nine compounds are retold here after paper PMC5902452, “In silico optimization of a guava antimicrobial peptide enables combinatorial exploration for peptide design” (Nature Communications, 2018).

Series [1] deals with P. aeruginosa H1001 (fliC::luxCDABE). Type of series: cell-based, Pseudomonas aeruginosa. To be noted: SPOT-synthesized unpurified crude peptide (~70% purity); bioluminescent engineered P. aeruginosa; BM2 medium; 4 h, 37 °C; reduction of luminescence; 200 to 3 μg mL−1 tested. How it is done:
A peptide array composed of 20 peptides (15 guavanins, 4 Pg-AMP1 fragments, and magainin 2) was designed and synthesized by Kinexus Bioinformatics Corporation (Vancouver, BC). Peptides were produced in a standard mass of 80 μg by using cellulose support in SPOT technology. The crude synthetic peptides were obtained from cellulose membrane discs that had already been treated with ammonia gas to release the peptides from the membrane. Peptides were then dissolved overnight in distilled water and subsequently evaluated for their biological activities, as described below.
The antimicrobial activity of the synthesized peptides was evaluated against an engineered luminescent P. aeruginosa H1001 (fliC::luxCDABE) strain in 96-well microplates. Aqueous solutions of peptides released from the cellulose spots were diluted twofold in BM2 medium [62 mM potassium phosphate buffer pH 7; 2 mM MgSO4; 10 μM FeSO4; 0.4% (wt/vol) glucose] down the eight wells of a 96-well plate, achieving a final volume of 25 μL in each well. Subsequently, 50 μL of overnight culture of P. aeruginosa H1001 (fliC::luxCDABE) were subcultured in 5 mL of fresh LB media and grown until they reached an OD600 of 0.4. This growing bacteria culture was then diluted 4:100 (v/v) into fresh BM2 media and 25 μL of this diluted bacterial culture was transferred to the microplate wells containing 25 μL of peptide solution. The final peptide concentrations tested ranged from 200 to 3 μg mL^−1. The plates were incubated for 4 h at 37 °C with constant shaking at 50 rpm. Luminescence was measured on a Tecan […]luor Plus Microplate Reader (Tecan US, Morrisville, NC). The antimicrobial activity was evaluated by the ability of the peptides to reduce the luminescence of P. aeruginosa-lux strain compared to untreated cells. The AMP magainin 2 and the carbapenem meropenem were used as positive controls and distilled water was used as a negative control.

The next series relates to human erythrocytes. Description: Hemolytic assay. The settings on record: SPOT-synthesized crude peptides; human red blood cells in NaCl 0.85%, 1 h, 37 °C; hemoglobin release at 546 nm; highest concentration 200 μg mL−1; 100% of hemolysis was not observed.
Series [2] has as its system E. coli ATCC 25922. Kind of series: Membrane polarization assay with DiSC3(5). Type of series: cell-based, Escherichia coli. To be noted: 5 µM, positive control. How it is done:
When the cytoplasmic membrane is intact, the fluorescent probe DiSC3(5) accumulates into the cytoplasmic membrane and then aggregates, causing self-quenching of the fluorescence. In the presence of a membrane-depolarizing agent, DiSC3(5) is released into the medium, leading to an increase in fluorescence that can be monitored over time[59]. Briefly, exponentially growing bacteria were centrifuged (1000 × g, 10 min, 4 °C), washed with PBS, and resuspended in the same buffer to an A630 of 0.1; then 700 µL of bacteria were pre-incubated with 1 µM DiSC3(5) in the dark during 10 min at 37 °C, and then 100 µL of 1 mM KCl were added in order to equilibrate the cytoplasmic and external K^+ concentrations. […] Three independent experiments were performed and results correspond to a representative experiment with negative (PBS) and positive (melittin) controls.

Series [3] relates to E. coli ATCC 25922. Description: SYTOX green uptake assay (membrane permeabilization). Type of series: cell-based, Escherichia coli. To be noted: 5 µM, positive control. As to the method: SG is impermeant to live cells and when the cell membrane is damaged, this dye penetrates into the cell and binds to intracellular DNA, due to its high-affinity to nucleic acids, leading to an increase in fluorescence. Exponentially growing bacteria (6 × 10^5 cfu mL^−1) were resuspended in PBS after centrifugation (1000 × g, 10 min, 4 °C) and washing steps. About 792 μL of the bacterial suspension was pre-incubated with 8 μL of 100 μM SG during 30 min at 37 °C in the dark. […] Results correspond to a representative experiment with negative (PBS) and positive (melittin) controls. Three independent experiments were performed.

Converted amounts (≈) assume the structure as drawn. Peptide text beside a SMILES is read from it.

Protocol for human erythrocytes: Fresh human venous blood was collected from volunteers in Vacutainer collection tubes containing sodium heparin as an anticoagulant (BD Biosciences, Franklin Lakes, NJ). The blood was centrifuged applying 151 × g force (1500 rpm) and the serum was removed and the blood cells were replaced and washed three times with the same volume of sterile NaCl 0.85% solution. Concentrated red blood cells were diluted tenfold in NaCl 0.85% solution and then exposed at twofold dilutions of peptides for 1 h at 37 °C, at identical concentrations used for antimicrobial assays, in the ratio of 1:1 (v/v), achieving a final volume of 100 μL. The assay was carried out in 96-well polypropylene microtiter plates. The positive control wells contained 1% of Triton X-100, representing 100% cell lysis, and negative control wells contained sterile saline. Hemoglobin release was monitored chromogenically at 546 nm using a microplate reader.

The MIC is the smallest concentration in the dilution series that meets the test's criterion for growth inhibition. A lower MIC goes with inhibition by little substance. Consider `CC[C@H](C)[C@H](NC(=O)CNC(=O)[C@H](CCCNC(=N)N)NC(=O)[C@H](CCC(N)=O)NC(=O)CNC(=O)[C@H](CCCCN)NC(=O)[C@H](CCCNC(=N)N)NC(=O)[C@H](CC(C)C)NC(=O)[C@H](C)NC(=O)[C@H](CCCNC(=N)N)NC(=O)[C@H](CCC(=O)O)NC(=O)[C@H](Cc1ccc(O)cc1)NC(=O)[C@H](C)NC(=O)[C@H](CCC(=O)O)NC(=O)[C@H](Cc1ccc(O)cc1)NC(=O)[C@H](Cc1ccc(O)cc1)NC(=O)[C@H](CO)NC(=O)[C@@H](N)CCCNC(=N)N)C(=O)N[C@@H](CCCNC(=N)N)C(=O)N[C@@H](CCCNC(=N)N)C(N)=O` [Guavanin 8] (H-RSYYEAYERALRKGQRGIRR-NH2), for which the MIC in series [1] is 100 µg/mL (≈ 39.6 µM). The compound also had a Hemolysis in the series with human erythrocytes above 200 µg/mL.
Compound `CSCC[C@H](NC(=O)[C@H](Cc1ccc(O)cc1)NC(=O)[C@H](C)NC(=O)[C@@H](N)CCCNC(=N)N)C(=O)N[C@@H](CCC(=O)O)C(=O)N[C@@H](C)C(=O)N[C@@H](CC(C)C)C(=O)N[C@@H](CCCNC(=N)N)C(=O)N[C@@H](CCC(N)=O)C(=O)N[C@@H](C)C(=O)N[C@@H](CCC(=O)O)C(=O)N[C@@H](CCCNC(=N)N)C(=O)N[C@@H](CC(C)C)C(=O)NCC(=O)N[C@@H](CC(N)=O)C(=O)N[C@@H](CCCNC(=N)N)C(=O)N[C@H](C(=O)N[C@@H](C)C(=O)N[C@@H](CCCNC(=N)N)C(=O)N[C@@H](CCCNC(=N)N)C(N)=O)[C@@H](C)O` [Guavanin 9] (H-RAYMEALRQAERLGNRTARR-NH2) showed an MIC in series [1] above 200 µg/mL. This compound came in with a Hemolysis in the series on human erythrocytes above 200 µg/mL.
`CSCC[C@H](NC(=O)[C@H](CC(C)C)NC(=O)[C@H](Cc1ccc(O)cc1)NC(=O)[C@@H](N)CCCNC(=N)N)C(=O)N[C@@H](CCC(=O)O)C(=O)N[C@@H](Cc1ccc(O)cc1)C(=O)N[C@@H](C)C(=O)N[C@@H](CCC(=O)O)C(=O)N[C@@H](CCC(N)=O)C(=O)N[C@@H](C)C(=O)N[C@@H](CCCCN)C(=O)N[C@@H](CCCNC(=N)N)C(=O)N[C@@H](CC(=O)O)C(=O)N[C@@H](C)C(=O)N[C@@H](CCCCN)C(=O)N[C@@H](CCCNC(=N)N)C(=O)N[C@@H](C)C(=O)N[C@@H](Cc1ccc(O)cc1)C(=O)N[C@@H](CCCNC(=N)N)C(=O)N[C@@H](CCCNC(=N)N)C(N)=O` [Guavanin 10] (H-RYLMEYAEQAKRDAKRAYRR-NH2) had an MIC in series [1] of 200 µg/mL (≈ 77.7 µM). Moreover, the Hemolysis in the series with human erythrocytes is above 200 µg/mL.
As to `CC[C@H](C)[C@H](NC(=O)[C@H](CC(C)C)NC(=O)[C@H](CCC(=O)O)NC(=O)[C@H](CCSC)NC(=O)[C@H](CC(C)C)NC(=O)[C@H](CCC(N)=O)NC(=O)[C@@H](N)CCCNC(=N)N)C(=O)N[C@@H](CCC(=O)O)C(=O)N[C@@H](CCC(N)=O)C(=O)N[C@@H](C)C(=O)N[C@@H](CCC(=O)O)C(=O)N[C@@H](CCCNC(=N)N)C(=O)N[C@@H](Cc1ccc(O)cc1)C(=O)NCC(=O)N[C@@H](CC(N)=O)C(=O)N[C@@H](CCCNC(=N)N)C(=O)N[C@@H](Cc1ccccc1)C(=O)N[C@@H](Cc1ccc(O)cc1)C(=O)N[C@@H](CCCNC(=N)N)C(=O)N[C@@H](CCCNC(=N)N)C(N)=O` [Guavanin 11] (H-RQLMELIEQAERYGNRFYRR-NH2), the minimal inhibitory concentration (MIC) in series [1] is above 200 µg/mL. The compound also registered a Hemolysis in the series with human erythrocytes above 200 µg/mL.
In turn, `CC[C@H](C)[C@H](NC(=O)[C@H](C)NC(=O)[C@H](CCC(N)=O)NC(=O)[C@H](CCC(=O)O)NC(=O)[C@H](Cc1ccc(O)cc1)NC(=O)[C@H](CC(C)C)NC(=O)[C@H](CCC(=O)O)NC(=O)[C@H](CCSC)NC(=O)[C@H](CC(C)C)NC(=O)[C@H](CCCCN)NC(=O)[C@@H](N)CCCNC(=N)N)C(=O)N[C@@H](CCCNC(=N)N)C(=O)N[C@@H](Cc1ccc(O)cc1)C(=O)NCC(=O)N[C@@H](CCCCN)C(=O)N[C@@H](CCCNC(=N)N)C(=O)N[C@@H](CO)C(=O)N[C@@H](Cc1ccc(O)cc1)C(=O)N[C@@H](CCCNC(=N)N)C(=O)N[C@@H](CCCNC(=N)N)C(N)=O` [Guavanin 12] (H-RKLMELYEQAIRYGKRSYRR-NH2) had an MIC in series [1] of 25 µg/mL (≈ 9.56 µM). For the same compound, the Hemolysis in the series with human erythrocytes was above 200 µg/mL.
For `CSCC[C@H](NC(=O)[C@H](Cc1ccc(O)cc1)NC(=O)[C@H](CCCNC(=N)N)NC(=O)[C@@H](N)CCCNC(=N)N)C(=O)N[C@@H](CCC(=O)O)C(=O)N[C@@H](CS)C(=O)N[C@@H](Cc1ccc(O)cc1)C(=O)N[C@@H](CCC(=O)O)C(=O)N[C@@H](CCC(N)=O)C(=O)N[C@@H](C)C(=O)N[C@@H](CCC(=O)O)C(=O)N[C@@H](CCCNC(=N)N)C(=O)N[C@@H](Cc1ccc(O)cc1)C(=O)N[C@@H](Cc1ccccc1)C(=O)N[C@@H](CCCNC(=N)N)C(=O)N[C@@H](CCCNC(=N)N)C(=O)N[C@@H](Cc1ccccc1)C(=O)NCC(=O)N[C@@H](CCCNC(=N)N)C(=O)N[C@@H](CCCNC(=N)N)C(N)=O` [Guavanin 13] (H-RRYMECYEQAERYFRRFGRR-NH2) the same measures were 25 µg/mL (≈ 9.02 µM) and above 200 µg/mL.
For `CC[C@H](C)[C@H](NC(=O)[C@H](CCCNC(=N)N)NC(=O)[C@H](CC(N)=O)NC(=O)CNC(=O)[C@H](Cc1ccc(O)cc1)NC(=O)[C@H](CCCNC(=N)N)NC(=O)[C@H](CO)NC(=O)[C@H](C)NC(=O)[C@H](CCC(N)=O)NC(=O)[C@H](CCC(=O)O)NC(=O)[C@H](Cc1ccc(O)cc1)NC(=O)[C@H](CS)NC(=O)[C@H](CCCCN)NC(=O)[C@H](CCSC)NC(=O)[C@H](Cc1ccccc1)NC(=O)[C@H](CO)NC(=O)[C@@H](N)CCCNC(=N)N)C(=O)N[C@@H](CC(C)C)C(=O)N[C@@H](CCCNC(=N)N)C(=O)N[C@@H](CCCNC(=N)N)C(N)=O` [Guavanin 14] (H-RSFMKCYEQASRYGNRILRR-NH2) the same measures were 12.5 µg/mL (≈ 4.93 µM) and above 200 µg/mL.
Regarding `CC(C)C[C@H](NC(=O)[C@H](CCCCN)NC(=O)[C@@H](N)CCCNC(=N)N)C(=O)N[C@H](C(=O)N[C@@H](CCC(=O)O)C(=O)N[C@@H](CS)C(=O)N[C@@H](Cc1ccc(O)cc1)C(=O)N[C@@H](CCC(=O)O)C(=O)N[C@@H](CCCNC(=N)N)C(=O)N[C@@H](C)C(=O)N[C@@H](CCC(=O)O)C(=O)N[C@@H](CCCNC(=N)N)C(=O)N[C@@H](CC(=O)O)C(=O)N[C@@H](C)C(=O)N[C@@H](CC(N)=O)C(=O)N[C@@H](CCCNC(=N)N)C(=O)N[C@@H](CO)C(=O)NCC(=O)N[C@@H](CCCNC(=N)N)C(=O)N[C@@H](CCCNC(=N)N)C(N)=O)C(C)C` [Guavanin 15] (H-RKLVECYERAERDANRSGRR-NH2), the MIC in series [1] worked out at 200 µg/mL (≈ 81.2 µM). This compound also showed a Hemolysis in the series with human erythrocytes above 200 µg/mL.
Take melittin [reference compound]: the “DiSC3(5) fluorescence change (membrane potential)” value in the series with E. coli ATCC 25922 [2] was “rapid increase in the fluorescence signal”. In addition, in the series on E. coli ATCC 25922 [3], the “SYTOX Green influx (membrane permeabilization)” value is “rapid and maximal SG fluorescence signal”.
